Measurements published in patent US10996205B2, “Stress biomarkers and related non-invasive detection methods” (ARIZONA BOARD OF REGENTS ON BEHALF OF THE UNIVERSITY OF …, priority 2015, dated 2021).

Assay: Stability of cortisol in human eccrine sweat at room temperature
Method: To test the stability of cortisol in human eccrine sweat in order to improve sweat collection method and procedures, aliquots of the same sweat samples were left at room temperature for a duration of 3 hours, with each aliquots analyzed every 30 minutes in first hour and every hour afterwards.
Spiked human eccrine sweat samples were tested over a period of 3 hours at room temperature.

cortisol loss in spiked human eccrine sweat (period of 3 hours at room temperature): No measurable cortisol loss
Concentration (spiked sweat, 0 minutes at room temperature): 29.191 ng/mL
Concentration (spiked sweat, 30 minutes at room temperature): 36.802 ng/mL
Concentration (spiked sweat, 1 hour at room temperature): 30.807 ng/mL
Concentration (spiked sweat, 2 hours at room temperature): 30.228 ng/mL
Concentration (spiked sweat, 3 hours at room temperature): 29.515 ng/mL
Concentration (unspiked human eccrine sweat): 3.488 ng/mL
Structure (SMILES): C[C@]12CCC(=O)C=C1CC[C@@H]1[C@@H]2[C@@H](O)C[C@@]2(C)[C@H]1CC[C@]2(O)C(=O)CO [cortisol, 4-PREGNEN-11β, 17, 21-TRIOL-3, 20-DIONE]
